Assays:
[1] = test system: PDIA3-HA protein-protein interaction; type: cell-based, canine
[2] = test system: PR8 IAV HA transport to the plasma membrane; type: cell-based; settings: NTZ 5 μg/ml after adsorption, A549 cells, PR8 5 PFU/cell, 6 h p.i.
recombinant human PDIA3 = biological target: T1, recombinant human PDIA3 (Homo sapiens, UniProt P30101); experiment: Disulfide reductase activity assay with Di-E-GSSG substrate; type: biochemical
T1 construct: full-length recombinant human PDIA3 (rhPDIA3, Abcam); purchased Abcam
T1 sequence (P30101 25-505): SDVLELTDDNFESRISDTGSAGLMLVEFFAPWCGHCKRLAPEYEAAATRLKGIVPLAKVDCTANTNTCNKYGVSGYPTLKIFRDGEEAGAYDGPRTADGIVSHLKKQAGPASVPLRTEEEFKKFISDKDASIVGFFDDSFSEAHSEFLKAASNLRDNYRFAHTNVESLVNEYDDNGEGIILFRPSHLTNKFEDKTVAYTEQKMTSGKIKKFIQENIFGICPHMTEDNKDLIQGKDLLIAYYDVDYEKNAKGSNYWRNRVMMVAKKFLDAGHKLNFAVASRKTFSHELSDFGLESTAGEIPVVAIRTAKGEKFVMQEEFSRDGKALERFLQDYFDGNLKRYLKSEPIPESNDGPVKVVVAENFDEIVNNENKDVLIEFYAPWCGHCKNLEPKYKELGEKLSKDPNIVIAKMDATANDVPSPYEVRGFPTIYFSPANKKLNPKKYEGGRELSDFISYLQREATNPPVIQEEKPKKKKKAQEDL
Description: PDIA3 activity was determined by enzyme-dependent disulfide reduction assay. The disulfide reductase activity was tested in vitro using dieosin glutathione disulfide (Di-E-GSSG) as substrate. Recombinant human PDIA3 (rhPDIA3) (2 nM), pre-incubated with different concentrations of TIZ or control diluent (DMSO) for 10 min. at room temperature, was added to Di-E-GSSG (150 nM) in the presence of 5 μM DTT (arrow). PDIA3 reductase activity cleaves the S—S bond of Di-E-GSSG resulting in the release of fluorescent 2-eosin-GSH (EGSH). The increase in fluorescence was monitored at λ=545 nm with excitation at λ=525 nm, and expressed as relative fluorescence units (RFU).
FIG. 4A-B show effect of TIZ on PDIA3 and PDIA1 disulfide reductase activity. Effect of TIZ (5 μg/ml) on PDIA3 and PDIA1 (PDI) activities were measured by Di-E-GSSG assay using the same concentration (20 nM) of PDIA3 or PDIA1.
Disulfide reductase (DR) activity of PDIA3 or protein disulfide isomerase (PDI) was monitored by sensitive fluorescent assay using dieosin glutathione disulfide (Di-E-GSSG) (Cayman Chemical) as a substrate. DR activity assay was performed in a reaction buffer (0.1 M potassium phosphate, pH 7.0; 2 mM EDTA) by adding 2 or 20 nM of full-length recombinant human PDIA3 (rhPDIA3, Abcam) or PDI (rhPDIA1, R&D Systems) to different concentrations of Di-E-GSSG in the presence of 5 μM DTT. The reductase activity of disulfide isomerases cleaves the S—S bond of Di-E-GSSG resulting in the release of fluorescent 2-eosin-GSH (EGSH). To test the effect of TIZ on PDIA3 and PDI reductase activity, recombinant human PDIA3 or PDIA1 were previously incubated for 10 min at room temperature with different concentrations of TIZ or control diluent (DMSO) in the reaction buffer, unless differently specified. The increase in fluorescence was monitored at λ=545 nm with excitation at λ=525 nm at 25° C. with continuous stirring, and expressed as relative fluorescence units (RFU).
Thiazolides inhibit PDIA3 disulfide isomerase activity. To investigate whether thiazolides may directly affect PDIA3 disulfide-isomerase activity, we performed a fluorescence-based reductase in vitro assay using purified full-length recombinant human PDIA3 and oxidized glutathione coupled to dieosin (Di-E-GSSG) as a substrate. NTZ's circulating active metabolite, TIZ, was utilized for these studies.
Recombinant human PDIA3 (rhPDIA3) (2 nM) was pre-incubated with different concentrations of TIZ or control diluent (DMSO) for 10 min. at room temperature. […] PDIA3 reductase activity cleaves the S—S bond of Di-E-GSSG resulting in the release of fluorescent 2-eosin-GSH (EGSH), that is measured in function of time by fluorimetry, as described in Materials and Methods. […]

Compound: CC(=O)Oc1ccccc1C(=O)Nc1ncc([N+](=O)[O-])s1 [NTZ, nitazoxanide]
- HA-PDIA3 interaction detected by PLA [1]: PDIA3 strongly interacts with HA forming large spots
- plasma membrane-incorporated HA (HA transport to the plasma membrane) [2]: inhibits PR8 IAV HA transport to the plasma membrane
- PDIA3 disulfide-isomerase activity in an in vitro assay (conclusion statement) (recombinant human PDIA3): directly inhibits PDIA3 disulfide-isomerase activity

Compound: O=C(Nc1ncc([N+](=O)[O-])s1)c1ccccc1O [TIZ, tizoxanide]
- effect on PDIA3 versus human PDIA1 reductase activity (recombinant human PDIA3; TIZ 5 μg/ml, PDIA3 or PDIA1 20 nM, preliminary experiment): preferentially inhibits PDIA3 reductase activity
- lowest TIZ concentration tested at which inhibitory activity was observed (recombinant human PDIA3; rhPDIA3 2 nM, Di-E-GSSG 150 nM, 5 μM DTT): 1 µg/mL
- PDIA3 disulfide reductase activity (time-course of EGSH fluorescence) (recombinant human PDIA3; rhPDIA3 2 nM, pre-incubated 10 min with different TIZ concentrations, Di-E-GSSG 150 nM, 5 μM DTT): inhibits PDIA3 activity in a dose-dependent manner

From patent US11173149B2, “Inhibition of protein disulfide-isomerase A3” (Romark Laboratories L.C., priority 2017, dated 2021)
